From patent publication US11000033B2, “Ketone or oxime compound, and herbicide” (NISSAN CHEMICAL CORPORATION, priority 2014, dated 2021)

Assays:
Format in all cases: in vivo
Veronica persica [1] = experiment: Test Example 5: herbicidal effect by foliage application, plastic box (symbol R); details: 320 g/ha, 3 weeks after application
How it was run: (§1)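 Leaf-applied emulsion, water-diluted to a preset herbicide dose, on two-week-old seedlings raised in a 25° C. to 30° C. greenhouse; injury rated at 3 weeks using earlier criteria.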

Galium spurium = experiment: Test Example 4: herbicidal effect by soil treatment (symbol Q); details: application herbicide amount 320 g/ha
How it was run: (§2)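 Seeds were sown in sterilized diluvial soil, covered with about 1.5 cm of soil, and the soil surface was sprayed with a water-diluted emulsion of the compound at a predetermined rate. Plants grew in a greenhouse at 25° C. to 30° C.; effects were scored visually 3 weeks after application.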

Chenopodium album [2] = experiment: Test Example 5: herbicidal effect by foliage application, plastic box (symbol O); details: 320 g/ha, 3 weeks after application
How it was run: as §1

Amaranthus retroflexus = experiment: Test Example 5: herbicidal effect by foliage application, plastic box (symbol N); details: 320 g/ha, 3 weeks after application
How it was run: as §1

Setaria viridis = experiment: Test Example 4: herbicidal effect by soil treatment (symbol G); details: for G (Setaria viridis) herbicidal effect grade: application herbicide amount 320 g/ha
How it was run: as §2

rapeseed = experiment: Test Example 4: effect on crop by soil treatment (symbol g); details: for g (rapeseed) effect on crop grade: application herbicide amount 320 g/ha
How it was run: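 Crop seed is sown in spots together with several weed species in a box of sterilized diluvial soil. It is covered by about 1.5 cm of soil and kept in a greenhouse held between 25° C. and 30° C.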

Monochoria vaginalis = experiment: Test Example 1: herbicidal activity, application before weed generation in submerged conditions (symbol C); details: application herbicide amount 320 g/ha
How it was run: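 Greenhouse growth at 25–30 °C lasted 3 weeks after treatment, when each weed was graded 0–5 by herbicidal ratio. Treatment was a diluted emulsion applied to the water surface of 4 cm-submerged alluvial soil on the sowing day.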

Veronica persica [3] = experiment: Test Example 4: herbicidal effect by soil treatment (symbol R); details: for R (Veronica persica) herbicidal effect grade: application herbicide amount 320 g/ha
How it was run: as §2

Chenopodium album [4] = experiment: Test Example 4: herbicidal effect by soil treatment (symbol O); details: 320 g/ha
How it was run: as §2

Structure (SMILES)	R: Veronica persica, herbicidal effect grade (Veronica persica [1])	Q (Galium spurium) herbicidal effect grade (Galium spurium)	O: Chenopodium album, herbicidal effect grade (Chenopodium album [2])	N: Amaranthus retroflexus, herbicidal effect grade (Amaranthus retroflexus)	G (Setaria viridis) herbicidal effect grade (Setaria viridis)	g (rapeseed) effect on crop grade (rapeseed)	Herbicidal effect grade, C: Monochoria vaginalis (Monochoria vaginalis)	R (Veronica persica) herbicidal effect grade (Veronica persica [3])	R: Veronica persica, herbicidal effect (criteria 0-5) (Veronica persica [1])	O: Chenopodium album, herbicidal effect (criteria 0-5) (Chenopodium album [2])	R: Veronica persica, herbicidal effect grade (Veronica persica [3]; 320 g/ha)	N: Amaranthus retroflexus, herbicidal effect (criteria 0-5) (Amaranthus retroflexus)	G: Setaria viridis, herbicidal effect grade (Setaria viridis; 320 g/ha)	O: Chenopodium album, herbicidal effect grade (Chenopodium album [4])	g: rapeseed, effect grade on crop (rapeseed; 320 g/ha)
CC(CC1CC(O)=C(c2c(C)cc(C)cc2C)C1=O)=NOCC(=O)N1CCOCC1 (centres unmarked) [1-025]	3 (Herbicidal ratio of 40% or higher and lower than 70%)	0 (Herbicidal ratio of 5% or lower (almost no effect))	4 (Herbicidal ratio of 70% or higher and lower than 90%)	0 (Herbicidal ratio of 5% or lower (almost no effect))	5 (Herbicidal ratio of 90% or more (almost completely withered))	4 (Herbicidal ratio of 70% or higher and lower than 90%)	0 (Herbicidal ratio of 5% or lower (almost no effect))								
CON=C(C)CC1CC(OC(=O)CCC2CCCCC2)=C(c2c(C)cc(C)cc2C)C1=O (centres unmarked) [1-035]		0 (Herbicidal ratio of 5% or lower (almost no effect))		3 (Herbicidal ratio of 40% or higher and lower than 70%)	5 (Herbicidal ratio of 90% or more (almost completely withered))	5 (Herbicidal ratio of 90% or more (almost completely withered))	2 (Herbicidal ratio of 20% or higher and lower than 40%)								
CC(CC1CC(O)=C(c2c(C)cc(C)cc2C)C1=O)=NOCC1CC1 (centres unmarked) [1-024]		0 (Herbicidal ratio of 5% or lower (almost no effect))	1 (Herbicidal ratio of 5% or higher and lower than 20%)	0 (Herbicidal ratio of 5% or lower (almost no effect))	3 (Herbicidal ratio of 40% or higher and lower than 70%)	3 (Herbicidal ratio of 40% or higher and lower than 70%)	2 (Herbicidal ratio of 20% or higher and lower than 40%)								
CCCCCCCCC(=O)OC1=C(c2c(C)cc(C)cc2C)C(=O)C(CC(C)=NOC)C1 (centres unmarked) [1-033]	2 (Herbicidal ratio of 20% or higher and lower than 40%)	3 (Herbicidal ratio of 40% or higher and lower than 70%)		4 (Herbicidal ratio of 70% or higher and lower than 90%)	5 (Herbicidal ratio of 90% or more (almost completely withered))	5 (Herbicidal ratio of 90% or more (almost completely withered))	1 (Herbicidal ratio of 5% or higher and lower than 20%)	1 (Herbicidal ratio of 5% or higher and lower than 20%)							
CON=C(C)CC1CC(OCC#C[Si](C)(C)C)=C(c2c(C)cc(C)cc2C)C1=O (centres unmarked) [1-031]		0 (Herbicidal ratio of 5% or lower (almost no effect))	0 (Herbicidal ratio of 5% or lower (almost no effect))	0 (Herbicidal ratio of 5% or lower (almost no effect))	0 (Herbicidal ratio of 5% or lower (almost no effect))	3 (Herbicidal ratio of 40% or higher and lower than 70%)	2 (Herbicidal ratio of 20% or higher and lower than 40%)								
CON=C(C)CC1CC(OC(=O)COc2ccc(C)cc2)=C(c2c(C)cc(C)cc2C)C1=O (centres unmarked) [1-072]	3 (Herbicidal ratio of 40% or higher and lower than 70%)	0 (Herbicidal ratio of 5% or lower (almost no effect))	1 (Herbicidal ratio of 5% or higher and lower than 20%)	5 (Herbicidal ratio of 90% or more (almost completely withered))	5 (Herbicidal ratio of 90% or more (almost completely withered))	4 (Herbicidal ratio of 70% or higher and lower than 90%)		0 (Herbicidal ratio of 5% or lower (almost no effect))							
CON=C(CC1CC(O)=C(c2c(C)cc(C)cc2C)C1=O)C1CC1 (centres unmarked) [1-046]	4 (Herbicidal ratio of 70% or higher and lower than 90%)	0 (Herbicidal ratio of 5% or lower (almost no effect))	2 (Herbicidal ratio of 20% or higher and lower than 40%)	2 (Herbicidal ratio of 20% or higher and lower than 40%)	4 (Herbicidal ratio of 70% or higher and lower than 90%)	4 (Herbicidal ratio of 70% or higher and lower than 90%)	4 (Herbicidal ratio of 70% or higher and lower than 90%)								
COCC(CC1CC(O)=C(c2c(C)cc(C)cc2C)C1=O)=NOC (centres unmarked) [1-040]	0 (Herbicidal ratio of 5% or lower (almost no effect))	0 (Herbicidal ratio of 5% or lower (almost no effect))	0 (Herbicidal ratio of 5% or lower (almost no effect))	0 (Herbicidal ratio of 5% or lower (almost no effect))	4 (Herbicidal ratio of 70% or higher and lower than 90%)	3 (Herbicidal ratio of 40% or higher and lower than 70%)	0 (Herbicidal ratio of 5% or lower (almost no effect))								
CON=C(C)CC1CC(OC(=O)COc2ccccc2)=C(c2c(C)cc(C)cc2C)C1=O (centres unmarked) [1-043]	2 (Herbicidal ratio of 20% or higher and lower than 40%)	0 (Herbicidal ratio of 5% or lower (almost no effect))	2 (Herbicidal ratio of 20% or higher and lower than 40%)	3 (Herbicidal ratio of 40% or higher and lower than 70%)	5 (Herbicidal ratio of 90% or more (almost completely withered))	5 (Herbicidal ratio of 90% or more (almost completely withered))	2 (Herbicidal ratio of 20% or higher and lower than 40%)								
CC(CC1CC(O)=C(c2c(C)cc(C)cc2C)C1=O)=NOCc1ccccc1F (centres unmarked) [1-026]		0 (Herbicidal ratio of 5% or lower (almost no effect))	3 (Herbicidal ratio of 40% or higher and lower than 70%)	0 (Herbicidal ratio of 5% or lower (almost no effect))	5 (Herbicidal ratio of 90% or more (almost completely withered))	3 (Herbicidal ratio of 40% or higher and lower than 70%)	5 (Herbicidal ratio of 90% or more (almost completely withered))								
CON=C(C)C(c1ccc(F)cc1)C1CC(O)=C(c2c(C)cc(C)cc2C)C1=O (centres unmarked) [1-049]	0 (Herbicidal ratio of 5% or lower (almost no effect))	0 (Herbicidal ratio of 5% or lower (almost no effect))	0 (Herbicidal ratio of 5% or lower (almost no effect))	0 (Herbicidal ratio of 5% or lower (almost no effect))	0 (Herbicidal ratio of 5% or lower (almost no effect))	0 (Herbicidal ratio of 5% or lower (almost no effect))	0 (Herbicidal ratio of 5% or lower (almost no effect))								
CC(CC1CC(O)=C(c2c(C)cc(C)cc2C)C1=O)=NOCC(C)O (centres unmarked) [1-027]		0 (Herbicidal ratio of 5% or lower (almost no effect))	1 (Herbicidal ratio of 5% or higher and lower than 20%)	0 (Herbicidal ratio of 5% or lower (almost no effect))	3 (Herbicidal ratio of 40% or higher and lower than 70%)	4 (Herbicidal ratio of 70% or higher and lower than 90%)	3 (Herbicidal ratio of 40% or higher and lower than 70%)								
CCCC=CC(=O)OC1=C(c2c(C)cc(C)cc2C)C(=O)C(CC(C)=NOC)C1 (centres unmarked) [1-090]							1 (Herbicidal ratio of 5% or higher and lower than 20%)		3 (Herbicidal ratio of 40% or higher and lower than 70%)	2 (Herbicidal ratio of 20% or higher and lower than 40%)	0 (Herbicidal ratio of 5% or lower (almost no effect))	1 (Herbicidal ratio of 5% or higher and lower than 20%)	5 (Herbicidal ratio of 90% or more (almost completely withered))	0 (Herbicidal ratio of 5% or lower (almost no effect))	4 (Herbicidal ratio of 70% or higher and lower than 90%)
